Source: patent publication US8658666B2, “Substituted imidazoquinolines and imidazonaphthyridines” (3M Innovative Properties Company, priority 2005, dated 2014)

melting point [°C] | Compound
197 to 199 | CCc1nc2c(N)nc3cc(CCC(N)=O)ccc3c2n1CC1CCOCC1 [Example 122, 3-[4-Amino-2-ethyl-1-(tetrahydro-2H-pyran-4-ylmethyl)-1H-imidazo[4,5-c]quinolin-7-yl]propanamide]
168 to 170 | CCc1nc2c(N)nc3cc(CCCNS(C)(=O)=O)ccc3c2n1CC1CCOCC1 [Example 124, N-{3-[4-Amino-2-ethyl-1-(tetrahydro-2H-pyran-4-ylmethyl)-1H-imidazo[4,5-c]quinolin-7-yl]propyl}methanesulfonamide]
> 260 | CCc1nc2c(N)nc3cc(/C=C/C(=O)N(C)C)ccc3c2n1CC1CCOCC1 [Example 128, (2E)-3-[4-Amino-2-ethyl-1-(tetrahydro-2H-pyran-4-ylmethyl)-1H-imidazo[4,5-c]quinolin-7-yl]-N,N-dimethylprop-2-enamide]
219 to 220 | CCc1nc2c(N)nc3cc(CCC(=O)N(C)C)ccc3c2n1CC1CCOCC1 [Example 129, 3-[4-Amino-2-ethyl-1-(tetrahydro-2H-pyran-4-ylmethyl)-1H-imidazo[4,5-c]quinolin-7-yl]-N,N-dimethylpropanamide]
172 to 173 | CCOC(=O)CCc1ccc2c(c1)nc(N)c1nc(CC)n(CC3CCOCC3)c12 [Example 132, Ethyl 3-[4-amino-2-ethyl-1-(tetrahydro-2H-pyran-4-ylmethyl)-1H-imidazo[4,5-c]quinolin-7-yl]propanoate]
203 to 205 | CCOCc1nc2c(N)nc3cc(C=O)ccc3c2n1CC(C)(C)O [Example 133, 4-Amino-2-(ethoxymethyl)-1-(2-hydroxy-2-methylpropyl)-1H-imidazo[4,5-c]quinoline-7-carbaldehyde]
177 to 178 | CCOCc1nc2c(N)nc3cc(CCCO)ccc3c2n1CC(C)(C)O [Example 134, 3-[4-Amino-2-(ethoxymethyl)-1-(2-hydroxy-2-methylpropyl)-1H-imidazo[4,5-c]quinolin-7-yl]propan-1-ol]

The next lines start with the compound.

Compound | melting point [°C]
CCc1nc2c(N)nc3cc(CCC#N)ccc3c2n1CC1CCOCC1 [Example 121, 3-[4-Amino-2-ethyl-1-(tetrahydro-2H-pyran-4-ylmethyl)-1H-imidazo[4,5-c]quinolin-7-yl]propanenitrile] | 273 to 275
CCc1nc2c(N)nc3cc(CCCN)ccc3c2n1CC1CCOCC1 [Example 123, 7-(3-Aminopropyl)-2-ethyl-1-(tetrahydro-2H-pyran-4-ylmethyl)-1H-imidazo[4,5-c]quinolin-4-amine] | 217 to 220
CCc1nc2c(N)nc3cc(CCCNC(C)=O)ccc3c2n1CC1CCOCC1 [Example 125, N-{3-[4-amino-2-ethyl-1-(tetrahydro-2H-pyran-4-ylmethyl)-1H-imidazo[4,5-c]quinolin-7-yl]propyl}acetamide] | 209 to 211
CCc1nc2c(N)nc3cc(CCCNC(=O)NC(C)C)ccc3c2n1CC1CCOCC1 [Example 126, N-{3-[4-amino-2-ethyl-1-(tetrahydro-2H-pyran-4-ylmethyl)-1H-imidazo[4,5-c]quinolin-7-yl]propyl}-N′-isopropylurea] | 213 to 216
COc1cccc(CNCc2ccc3nc(N)c4ncn(CC(C)C)c4c3c2)c1 [Example 127, 1-Isobutyl-8-{[(3-methoxybenzyl)amino]methyl}-1H-imidazo[4,5-c]quinolin-4-amine] | 125 to 126
CCc1nc2c(N)nc3cc(/C=C/C(=O)N4CCOCC4)ccc3c2n1CC1CCOCC1 [Example 130, 2-Ethyl-7-[(1E)-3-morpholin-4-yl-3-oxoprop-1-enyl]-1-(tetrahydro-2H-pyran-4-ylmethyl)-1H-imidazo[4,5-c]quinolin-4-amine] | > 260
CCOC(=O)/C=C/c1ccc2c(c1)nc(N)c1nc(CC)n(CC3CCOCC3)c12 [Example 131, Ethyl (2E)-3-[4-amino-2-ethyl-1-(tetrahydro-2H-pyran-4-ylmethyl)-1H-imidazo[4,5-c]quinolin-7-yl]prop-2-enoate] | 209 to 210
CCOCc1nc2c(N)nc3cc(CCCN4CCOCC4)ccc3c2n1CC(C)(C)O [Example 135, 1-[4-Amino-2-(ethoxymethyl)-7-(3-morpholin-4-ylpropyl)-1H-imidazo[4,5-c]quinolin-1-yl]-2-methylpropan-2-ol] | 132 to 133
